Measured values taken from patent US5126432A, “Calcium channel modulating substances” (Miles Inc., priority 1988, dated 1992).
“Also recorded” adds a separate entry of the source. One block for each compound: values may come before it.

Key:
calcium channel = conditions: known from the art; cited from earlier work
[1] = test system: dihydropyridine receptors; assay: stability of inhibitory activity to boiling and ashing; type: physicochemical; conditions: 270° C. for 3 hours
Source text: This observed differential activity was further evidence of a specific interaction with the dihydropyridine binding site rather than the non-specific reduction of free ligand concentration.
When this fraction was chromatographed on either a Waters Protein Pak-125 or a TSK-250 gel filtration column using 40% acetonitrile in 0.1% TFA as the mobile phase, the activity (as determined in ligand binding assays described in Example 1c) eluted in a volume less than […] fragment (amino acids 61-63) having a molecular weight of 443.

[2] = dialysis: binding of free [3H]DHP ligand to the fractions; conditions: 5 mg inside bag, 0.2 nM [3H]DHP, 25° C. overnight
Method: In order to further determine the specificity of action of a particular fraction (i.e., to insure that the fraction was acting competitively on the dihydropyridine receptor and not simply depleting the free ligand), a determination of the amount of free ligand was done by dialysis as follows.
A […] segment of Spectra-por 7 dialysis tubing (0.46 mL/cm) was washed thoroughly with water to remove EDTA and other chemicals. The molecular weight cut-off of this tubing was 1,000. Dialysis was performed in 16 mm glass tubes placed in a shaker incubator at 25° C. overnight. The volume inside the bag (made from closing the tubing by tying it) was 2.5 mL; the outside volume was 10 mL of 50 mM HEPES buffer, pH 7.0. Experiments were done with the [^3 H]DHP present both inside and outside the bag. The concentration of the [^3 H]DHP ligand used was always 0.2 nM. A control using 5 mg bovine serum albumin (BSA) inside the bag was carried out. […] The brain fractions tested were also 5 mg by weight. Dialysis was carried out in the presence of the cocktail of protease inhibitors described supra present both inside and outside the bag. The experiment was terminated by taking representative aliquots from inside and outside the bag (in triplicate). The cpm were then adjusted for total volume.

Compound: COC(=O)C1=C(C)NC(C)=C([N+](=O)[O-])C1c1ccccc1C(F)(F)F (stereo not drawn) [Bay K8644]
effect on calcium channel current (calcium channel): increases calcium channel current; also recorded: can produce inhibition depending on the precise membrane potential and channel state

Compound: [Cl-].[Na+] [NaCl]
activity after ashing [1]: maintained activity upon ashing

binding of [3H]DHP ligand in dialysis [2]: bind [^3 H]DHP ligand hydrophobically
Compound: bovine serum albumin: control in dialysis, 5 mg inside the bag
